The results in this text go back to patent US20230172201A1, “Use of 4-Phenylbutyric Acid and/or 3-Phenylbutyric Acid and/or 2-Phenylbutyric Acid in Preventing and Treating Cryptogamic Diseases” (Institut National de Recherche Pour L'Agriculture, …, priority 2020, published 2023).

One data set relates to Leptosphaeria maculans. Nature of the data set: Radial growth of the mycelium. It is filed as cell-based. The note with it: Plenodomus lingam, 432 h, time 18 days.
Data set [1] relates to Arabidopsis thaliana (ecotype Col-0). Nature of the data set: Effect of watering with 4-PBA on vegetative growth (rosette weight). The data set is classed as in vivo. As to conditions: watering with 1 mM once a week for 4 weeks. How it is done:
Material and Methods. The seeds of A. thaliana (ecotype Col-0) were sown in individual pots directly on compost without a prior step of stratification. […] These plants were then separated into 2 batches with 12 plants each, one watered with distilled water, the other with a solution of 4-PBA at a final concentration of 1 mM. In practice, watering took place once a week on a fixed day and at a fixed time, for 4 consecutive weeks (FIG. 5a). […] The rosette of each of the plantlets was then weighed to evaluate the effect of watering with 4-PBA on vegetative growth.

A further data set relates to Phytophthora capsici. Nature of the data set: Radial growth of the oomycete. The data set is classed as cell-based.
For data set [2], the system named is Fusarium oxysporum f. sp melonis. Nature of the data set: Radial growth of the mycelium. As to conditions: 288 h. It is filed as cell-based.

`O=C(O)CCCc1ccccc1` [4-PBA, 4-Phenylbutyric acid]: the inhibition at 1000 µM was found to be 73% in the data set on Leptosphaeria maculans (1 mM 4-PBA); 90% with Phytophthora capsici (Phytophthora capsici, 216 h, 1 mM 4-PBA, time 9 days); 68% in data set [2] (1 mM 4-PBA, time 12 days). Further, the inhibition at 2000 µM turned out to be 99% with Leptosphaeria maculans (2 mM 4-PBA); 100% in the data set on Phytophthora capsici (Phytophthora capsici, 216 h, 2 mM 4-PBA, time 9 days); 80% in data set [2] (2 mM 4-PBA, time 12 days). Further, the inhibition at 5000 µM in the data set with Leptosphaeria maculans (5 mM 4-PBA) worked out at 99%; in the data set on Phytophthora capsici (Phytophthora capsici, 216 h, 5 mM 4-PBA, time 9 days), 100%; in data set [2] (5 mM 4-PBA, time 12 days), 99%. Further, in data set [1], the “effect on the aerial biomass” value is recorded as “no effect”. For the same molecule, in the data set on Phytophthora capsici (2 and 5 mM), the “growth at higher concentrations” value is reported as “complete absence of growth for 20 days”. In data set [2] (time 12 days (day control colonized the whole Petri dish)), this molecule had a concentration giving a half-maximal response (EC50) of 400 µM.
